Assay results from patent US20060100245A1, “Substituted biphenyl-4-carboxylic acid arylamide analogues” (Neurogen Corporation, priority 2002, published 2006).
Like-named read-outs stand apart in the source and are kept apart here.

Target: T1, human capsaicin receptor (VR1) (Homo sapiens, UniProt Q8NER1)
T1 construct: transfected with the pBK-CMV expression construct encoding the full length human capsaicin receptor; expressed in transfected cells
Assay: Capsaicin receptor binding assay ([3H]RTX competition)
Summary of the method: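 Membranes from HEK293 cells stably expressing full-length human VR1; competition against 60 pM [3H]RTX, 60 min at 37 °C in HEPES/sucrose buffer pH 7.4 with 0.25 mg/ml BSA. Non-specific binding defined with 1 μM unlabelled RTX; alpha1-acid glycoprotein added after termination on ice.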

T1 sequence (Q8NER1 whole entry): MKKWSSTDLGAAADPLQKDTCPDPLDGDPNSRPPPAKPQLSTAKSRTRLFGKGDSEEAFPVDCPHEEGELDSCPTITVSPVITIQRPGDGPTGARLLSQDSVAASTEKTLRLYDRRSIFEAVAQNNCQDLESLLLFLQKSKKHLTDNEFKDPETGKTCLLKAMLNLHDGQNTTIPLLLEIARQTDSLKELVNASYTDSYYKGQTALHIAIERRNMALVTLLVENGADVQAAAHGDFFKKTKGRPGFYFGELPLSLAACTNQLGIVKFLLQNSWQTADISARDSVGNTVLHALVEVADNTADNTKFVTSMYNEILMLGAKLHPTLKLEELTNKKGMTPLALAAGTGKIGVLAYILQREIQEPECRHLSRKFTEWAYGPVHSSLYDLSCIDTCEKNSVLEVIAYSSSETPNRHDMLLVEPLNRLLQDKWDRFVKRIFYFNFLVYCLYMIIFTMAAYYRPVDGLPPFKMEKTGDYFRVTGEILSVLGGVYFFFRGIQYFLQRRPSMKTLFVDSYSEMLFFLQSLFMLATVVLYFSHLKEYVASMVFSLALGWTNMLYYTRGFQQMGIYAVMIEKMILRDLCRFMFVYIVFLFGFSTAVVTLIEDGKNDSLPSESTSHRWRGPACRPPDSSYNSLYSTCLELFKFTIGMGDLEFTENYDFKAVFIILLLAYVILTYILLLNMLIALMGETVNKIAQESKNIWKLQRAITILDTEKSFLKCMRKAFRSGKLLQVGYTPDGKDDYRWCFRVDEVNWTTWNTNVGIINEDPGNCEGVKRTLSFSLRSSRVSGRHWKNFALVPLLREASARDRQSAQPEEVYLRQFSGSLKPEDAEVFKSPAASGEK

Structure (SMILES)	Ki (read-out: Ki)	Ki
CN(c1cccnc1-c1ccc(C(=O)Nc2ccc(C(C)(C)C)cc2)cc1)S(C)(=O)=O [Compound 425, N-(4-tert-Butyl-phenyl)-4-[3-(methanesulfonyl-methyl-amino)-pyridin-2-yl]-benzamide]	< 1000 nM	
O=C(Nc1ccc2c(c1)OCCCO2)c1ccc(-c2cccc(OC(F)(F)F)c2)nc1 [Compound 223, N-(3,4-Dihydro-2H-benzo[b][1,4]dioxepin-7-yl)-6-(3-trifluoromethoxy-phenyl)-nicotinamide]	< 1000 nM	
COc1ccccc1-c1ccc(C(=O)Nc2ccc(C(F)(F)F)cc2)cn1 [Compound 99, 6-(2-Methoxy-phenyl)-N-(4-trifluoromethyl-phenyl)-nicotinamide]	< 1000 nM	
Cc1cccc(-c2ccc(C(=O)Nc3ccc(C(C)(C)C)cc3)cn2)c1 [Compound 452, N-(4-tert-Butyl-phenyl)-6-m-tolyl-nicotinamide]	< 1000 nM	
Cc1ccc(NC(=O)c2ccc(-c3cccc(OC(F)(F)F)c3)nc2)cc1C [Compound 242, N-(3,4-Dimethyl-phenyl)-6-(3-trifluoromethoxy-phenyl)-nicotinamide]	< 1000 nM	
CCOc1cccc(-c2ccc(C(=O)Nc3ccc4c(c3)OCCO4)cn2)c1 [Compound 194, N-(2,3-Dihydro-benzo[1,4]dioxin-6-yl)-6-(3-ethoxy-phenyl)-nicotinamide]	< 1000 nM	
CCCCc1ccc(-c2ccc(C(=O)Nc3cccc(OC)c3)cn2)cc1 [Compound 137, 6-(4-Butyl-phenyl)-N-(3-methoxy-phenyl)-nicotinamide]	< 1000 nM	
CCC(C)c1ccc(NC(=O)c2ccc(-c3ncccc3F)cc2)cc1 (stereo not shown) [Compound 390, N-(4-sec-Butyl-phenyl)-4-(3-fluoro-pyridin-2-yl)-benzamide]	< 1000 nM	
COc1cccc(NC(=O)c2ccc(-c3ccccc3)nc2)c1 [Compound 282, N-(3-Methoxy-phenyl)-6-phenyl-nicotinamide]	< 1000 nM	
CC(C)(C)c1ccc(NC(=O)c2ccc(-c3ccccc3CO)nc2)cc1 [Compound 444, N-(4-tert-Butyl-phenyl)-6-(2-hydroxymethyl-phenyl)-nicotinamide]	< 1000 nM	
CCOc1cccc(-c2ccc(C(=O)Nc3ccc4sc(C)nc4c3)cn2)c1 [Compound 119, 6-(3-Ethoxy-phenyl)-N-(2-smethyl-benzothiazol-5-yl)-nicotinamide]	< 1000 nM	
Cc1ccccc1-c1ccc(C(=O)Nc2ccc(Oc3ccc(Cl)cc3)cc2)cn1 [Compound 459, N-[4-(4-Chloro-phenoxy)-phenyl]-6-o-tolyl-nicotinamide]	< 1000 nM	
CC(C)(C)c1ccc(NC(=O)c2ccc(-c3ccncc3N)cc2)cc1 [Compound 24, 4-(3-Amino-pyridin-4-yl)-N-(4-tert-butyl-phenyl)-benzamide]	< 1000 nM	
Cc1ccc(NC(=O)c2ccc(-c3ccccc3)nc2)cc1C [Compound 249, N-(3,4-Dimethyl-phenyl)-6-phenyl-nicotinamide]	< 1000 nM	
CC(C)(C)c1ccc(NC(=O)c2ccc(-c3ccccc3Cl)cc2)cc1 [Compound 15, 2′-Chloro-biphenyl-4-carboxylic acid (4-tert-butyl-phenyl)-amide]	< 1000 nM	
O=C(Nc1ccc2c(c1)CCC2)c1ccc(-c2ccccc2F)nc1 [Compound 93, 6-(2-Fluoro-phenyl)-N-indan-5-yl-nicotinamide]	< 1000 nM	
Cc1cc(C)cc(-c2ccc(C(=O)Nc3ccc(C)c(F)c3)cn2)c1 [Compound 110, 6-(3,5-Dimethyl-phenyl)-N-(3-fluoro-4-methyl-phenyl)-nicotinamide]	< 1000 nM	
Cc1nnc(-c2cccnc2-c2ccc(C(=O)Nc3ccc(C(C)(C)C)cc3)cc2)o1 [Compound 424, N-(4-tert-Butyl-phenyl)-4-[3-(5-methyl-[1,3,4]oxadiazol-2-yl)-pyridin-2-yl]-benzamide]	< 1000 nM	
CC(C)(C)c1ccc(NC(=O)c2ccc(-c3ncccc3C#N)cc2)cc1 [Compound 405, N-(4-tert-Butyl-phenyl)-4-(3-cyano-pyridin-2-yl)-benzamide]	< 1000 nM	
Cc1nc2cc(NC(=O)c3ccc(-c4cccc(OC(F)(F)F)c4)nc3)ccc2s1 [Compound 207, N-(2-Methyl-benzothiazol-5-yl)-6-(3-trifluoromethoxy-phenyl)-nicotinamide]	< 1000 nM	
O=C(Nc1ccc(Cl)cc1)c1ccc(-c2ccccc2F)nc1 [Compound 348, N-(4-Chloro-phenyl)-6-(2-fluoro-phenyl)-nicotinamide]	< 1000 nM	
CC(c1ccc(NC(=O)c2ccc(-c3ncccc3Cl)cc2)cc1)C(F)(F)F (stereo not shown) [Compound 30, 4-(3-Chloro-pyridin-2-yl)-N-[4-(2,2,2-trifluoro-1-methyl-ethyl)-phenyl]-benzamide]	< 1000 nM	
Cc1cc(C)cc(-c2ccc(C(=O)Nc3ccc(Br)c(Cl)c3)cn2)c1 [Compound 316, N-(4-Bromo-3-chloro-phenyl)-6-(3,5-dimethyl-phenyl)-nicotinamide]	< 1000 nM	

Structure (SMILES)	Ki (read-out: Ki)	Ki
CCC1(c2ccc(NC(=O)c3ccc(-c4ncccc4F)cc3)cc2)CCC(=O)NC1=O (stereo not shown) [Compound 458, N-[4-(3-Ethyl-2,6-dioxo-piperidin-3-yl)-phenyl]-4-(3-fluoro-pyridin-2-yl)-benzamide]		< 1000 nM
CS(=O)(=O)N(c1cccnc1-c1ccc(C(=O)Nc2ccc(C(F)(F)F)cc2)cc1)S(C)(=O)=O [Compound 456, N-(4-Trifluoromethyl-phenyl)-4-[3-(N,N-dimethanesulfonyl)amino-pyridin-2-yl]-benzamide]	< 1000 nM	
CC(C)(C)c1ccc(NC(=O)c2ccc(-c3ncccc3NS(=O)(=O)c3ccccc3)cc2)cc1 [Compound 25, 4-(3-Benzenesulfonylamino-pyridin-2-yl)-N-(4-tert-butyl-phenyl)-benzamide]	< 1000 nM	
Cc1ccc(NC(=O)c2ccc(-c3ccccc3C)nc2)cc1C [Compound 248, N-(3,4-Dimethyl-phenyl)-6-o-tolyl-nicotinamide]	< 1000 nM	
CCOc1ccc(-c2ccc(C(=O)Nc3ccc(C(C)(C)C)cc3)cn2)c(Cl)c1 [Compound 440, N-(4-tert-Butyl-phenyl)-6-(2-chloro-4-ethoxy-phenyl)-nicotinamide]	< 1000 nM	
CCS(=O)(=O)Nc1cccnc1-c1ccc(C(=O)Nc2ccc(C(C)(C)C)cc2)cc1 [Compound 408, N-(4-tert-Butyl-phenyl)-4-(3-ethanesulfonylamino-pyridin-2-yl)-benzamide]	< 1000 nM	
Cc1ccc(NC(=O)c2ccc(-c3cccc(F)c3)nc2)cc1F [Compound 266, N-(3-Fluoro-4-methyl-phenyl)-6-(3-fluoro-phenyl)-nicotinamide]	< 1000 nM	
CC(C)c1ccc(-c2ccc(C(=O)Nc3ccc(Br)c(Cl)c3)cn2)cc1 [Compound 321, N-(4-Bromo-3-chloro-phenyl)-6-(4-isopropyl-phenyl)-nicotinamide]	< 1000 nM	
Nc1cc(-c2ncccc2C(F)(F)F)ccc1C(=O)Nc1ccc(C(F)(F)F)nc1 [Compound 14, 2-Amino-N-(6-trifluoromethyl-pyridin-3-yl)-4-(3-trifluoromethyl-pyridin-2-yl)-benzamide]	< 1000 nM	
O=C(Nc1ccc(F)c(F)c1)c1ccc(-c2ncccc2F)cc1 [Compound 214, N-(3,4-Difluoro-phenyl)-4-(3-fluoro-pyridin-2-yl)-benzamide]	< 1000 nM	
O=C(Nc1ccc2c(c1)CCC2)c1ccc(-c2cccc(Cl)c2)nc1 [Compound 116, 6-(3-Chloro-phenyl)-N-indan-5-yl-nicotinamide]	< 1000 nM	
COc1cccc(-c2ccc(C(=O)Nc3ccc4c(c3)CCC4)cn2)c1 [Compound 463, N-Indan-5-yl-6-(3-methoxy-phenyl)-nicotinamide]	< 1000 nM	
CC(C)(C)c1ccc(NC(=O)c2ccc(-c3cccnc3)cc2)cc1 [Compound 431, N-(4-tert-Butyl-phenyl)-4-pyridin-3-yl-benzamide]	< 1000 nM	
CC(C)(C)[C@H]1CC[C@H](NC(=O)c2ccc(-c3ncccc3Cl)cc2)CC1 [Compound 392, N-(4-tert-Butyl-cyclohexyl)-4-(3-chloro-pyridin-2-yl)-benzamide (trans)]	< 1000 nM	
CC(C)c1ccc(NC(=O)c2ccc(-c3ccccc3)nc2)cc1 [Compound 385, N-(4-Isopropyl-phenyl)-6-phenyl-nicotinamide]	< 1000 nM	
CC(C)(C)c1ccc(NC(=O)c2ccc(-c3ncccc3CN3CCCC3)cc2)cc1 [Compound 420, N-(4-tert-Butyl-phenyl)-4-(3-pyrrolidin-1-ylmethyl-pyridin-2-yl)-benzamide]	< 1000 nM	
CC(C)(C)c1ccc(NC(=O)c2ccc(-c3nccnc3Cl)cc2)cc1 [Compound 403, N-(4-tert-Butyl-phenyl)-4-(3-chloro-pyrazin-2-yl)-benzamide]	< 1000 nM	
O=C(Nc1ccc(F)cc1)c1ccc(-c2ncccc2F)cc1 [Compound 375, N-(4-Fluoro-phenyl)-4-(3-fluoro-pyridin-2-yl)-benzamide]	< 1000 nM	
CCc1ccc(NC(=O)c2ccc(-c3ccccc3F)nc2)cc1 [Compound 365, N-(4-Ethyl-phenyl)-6-(2-fluoro-phenyl)-nicotinamide]	< 1000 nM	
CC(C)(C)c1ccc(NC(=O)c2ccc(-c3ncccc3N(S(C)(=O)=O)S(C)(=O)=O)cc2)cc1 [Compound 426, N-(4-tert-Butyl-phenyl)-4-[3-(N,N-dimethanesulfonyl)amino-pyridin-2-yl]-benzamide]	< 1000 nM	
COCC(C)(C)c1ccc(NC(=O)c2ccc(-c3ncccc3Cl)cc2)cc1 [Compound 31, 4-(3-Chloro-pyridin-2-yl)-N-[4-(2-methoxy-1,1-dimethyl-ethyl)-phenyl]-benzamide]	< 1000 nM	
CC(C)(C)c1ccc(NC(=O)c2ccc(C3CCCCN3S(C)(=O)=O)cc2)cc1 (stereo not shown) [Compound 397, N-(4-tert-Butyl-phenyl)-4-(1-methanesulfonyl-piperidin-2-yl)-benzamide]	< 1000 nM	
CC(C)(C)c1ccc(NC(=O)c2ccc(-c3cc(C(F)(F)F)ccn3)cc2)cc1 [Compound 422, N-(4-tert-Butyl-phenyl)-4-(4-trifluoromethyl-pyridin-2-yl)-benzamide]	< 1000 nM	
